Values of other authors as cited in patent publication US8389024B2, “Abscisic acid against cancer” (priority 2005, dated 2013).
Read-outs that look alike come from different tables or passages of the source. Blank lines part the entries; values can stand above or below the compound they belong to.

Columns and labels:
[1] = system: lymphoblastic leukemia, prostate, breast and melanoma human cancer cells
[2] = system: head and neck squamous cell carcinoma; conditions: in vivo
humans with cancer = conditions: 62 random cases, inconclusive cases not considered; digestive treatment with ABA plus vaccine against P. crytocides
TNFALFA = conditions: human monocytes, murine microglia and murine macrophages
[3] = system: TCA8113 (human oral carcinoma); conditions: TCA8113 cells in vitro
[4] = system: four human cancer cell lines (HELA, DU145, HCT116 AND K562)
DU-145 (prostate cancer) = conditions: DU-145 tumor cells
stomatal opening = conditions: 10 mcM ABA extracellular application
[5] = system: C 1498 transplanted tumor with myeloid leukemia; conditions: for rate of survival at the end of 14 days: groups of 10 mice, treated 7 days; for survival: oral
[6] = system: HL-60 (promyelocytic leukemia); conditions: HL-60 tumor cells
[7] = system: human and murine pancreatic beta cells
[8] = the mentioned concentration (50 mg/ml), Sigma-Aldrich

Compound: CC/C=C\C[C@H]1C(=O)CC[C@@H]1CC(=O)O [JA, jasmonic acid]
proliferation or apoptosis of mammalian cancer cells [1]: can suppress the proliferation or cause apoptosis

half-lives (catabolism) (leaf discs of V. Faba): 30 to 32 h
Compound: CC1=CC(=O)CC(C)(C)C1(O)/C=C/C(C)=C\C(=O)O (racemic) [racemic ABA (R)]

Compound: CC1=C(/C=C/C(C)=C/C=C/C(C)=C\C(=O)O)C(C)(C)CCC1 [ISOTRETINOIN]
effectiveness in chemoprevention trial [2]: not effective

Compound: [S-(Z,E)]-5-(1-Hydroxy-2,6,6-trimethyl-4-oxo-2-cyclohexen-1-yl)-3-methyl-2,4-pentadienoic acid [ABA]
success rate (humans with cancer): around 82% | TNFALFA (TNFALFA): increased | expression of differentiation and apoptosis markers [3]: expression of RARBETA, involucrin protein and caspase-3 mRNA | apoptosis [4]: induction of apoptosis | cell cycle progression [4]: changed cell cycle progression | cell proliferation rate [4]: reduced cell proliferation rate | luminescence (indicator of reduced negative surface charge) [4]: reduced luminescence | tumor growth [4]: tumor growth reduction | changes in morphology of cancer cells (DU-145 (prostate cancer)): growth in poor condition and nuclear pycnosis | angiogenesis (a variety of tumor cells): inhibit angiogenesis | apoptosis (a variety of tumor cells): produce apoptosis | cell cycle and cell division of proliferating tumor cells (a variety of tumor cells): make proliferating tumor cells stagnate in S-phase and stop cell division | differentiation of cancer cells (a variety of tumor cells): become cancer cells in normal cells | inhibition of stomatal opening (stomatal opening; pH 6.15): 98% | inhibition of stomatal opening (stomatal opening; pH 8.0): 57% | functional activities of human granulocytes (human granulocytes): stimulates several functional activities as phagocytosis, reactive oxygen species (ROS) and nitric oxide production, and chemotaxis | nuclear protein Ki67 expressed in proliferating tumor cells (nuclear protein Ki67): reduced | rate of survival at the end of 14 days ([5]; Group II, ABA 1 mg/kg (i.p)): 9 survivors | rate of survival at the end of 14 days ([5]; Group III, ABA 10 mg/kg (i.p)): 10 survivors | rate of survival at the end of 14 days ([5]; Group IV, ABA 10 mg/kg (oral)): 6 survivors | rate of survival at the end of 14 days ([5]; Group V, ABA 100 mg/kg (oral)): 9 survivors | survivors ([5]; group number II, 1 mg/kg): 90% | inhibition of the tumor system (C1498) in mice (C57BL/6J) ([5]; mouse, in vivo): marked effect in the inhibition | survival ([5]; dose at 10 mg/kg): 60% | survival ([5]; dose at 100 mg/kg): 90% | EPD after ABA treatment (Lemna gibba G1; after 15 hours ABA treatment, from −109 mV): −194 mV | potential increase in average (EPD) (Lemna gibba G1; treatment with 10-100 mcm ABA): 85 mV | changes in morphology of cancer cells [6]: absence of tumor cell nuclear membrane microvilli and presentation of typical apoptosis characteristics | insulin secretion [7]: endogenous stimulator of insulin secretion

half-lives (catabolism) (leaf discs of V. Faba): 6 to 8 h
Compound: CC1=CC(=O)CC(C)(C)[C@@]1(O)/C=C/C(C)=C\C(=O)O [natural ABA (S)]

appearance of the solution in ethanol [8]: clear to slightly hazy
Compound: CC1=CC(=O)CC(C)(C)C1(O)/C=C/C(C)=C\C(=O)O (racemic) [(+/−)-Abscisic acid]

Compound: O=C([O-])c1ccccc1O.[Na+] [SA, sodium salicylate]
proliferation or apoptosis of mammalian cancer cells [1]: can suppress the proliferation or cause apoptosis

Compound: CC/C=C\CC1C(=O)CCC1CC(=O)OC (stereo not drawn) [MJ, methyl jasmonate]
proliferation or apoptosis of mammalian cancer cells [1]: can suppress the proliferation or cause apoptosis
